Results reported in ChEMBL document CHEMBL4373723 (J Med Chem, 2019).
Bridge positions count the residues as written; N and C are the ends. Square brackets hold non-standard residues; d marks the D form. Peptide text beside a SMILES is read from it. I, II: the chains in the order shown. Nva(3-Et) = CCC(CC)[C@H](N)C(=O)O; Cha = N[C@@H](CC1CCCCC1)C(=O)O; hLeu = CC(C)CC[C@H](N)C(=O)O; Nle = CCCC[C@H](N)C(=O)O

Key:
Frizzled-7 [1] = target: T1, Frizzled-7 (Homo sapiens, UniProt O75084); assay type: cell-based; conditions: cho
Frizzled-7 [2] = target: T1, Frizzled-7; assay: biochemical; assay type: cell-based, CHO; conditions: read-out: Kd
Frizzled-7 [3] = target: T1, Frizzled-7; conditions: CHO
Description: Binding affinity to recombinant human Frizzled-7 (Gln33 to Leu185 residues)/human IgG1 chimeric protein expressed in CHO cells assessed as association rate constant by SPR assay

CSCC[C@H](NC(=O)[C@@H](NC(=O)[C@H](Cc1cnc[nH]1)NC(=O)[C@H](CSSC[C@H](NC(=O)[C@H](Cc1c[nH]c2ccccc12)NC(=O)[C@H](Cc1ccccc1)NC(=O)[C@H](CCC(=O)O)NC(=O)[C@H](CC1CCCCC1)NC(=O)[C@H](CC(=O)O)NC(=O)[C@H](CC(=O)O)NC(=O)[C@H](CO)NC(C)=O)C(=O)N[C@@H](Cc1cnc[nH]1)C(=O)N[C@H](C(=O)N[C@@H](CCSC)C(=O)N[C@@H](Cc1ccc(O)cc1)C(N)=O)C(C)C)NC(=O)[C@H](Cc1c[nH]c2ccccc12)NC(=O)[C@H](Cc1ccccc1)NC(=O)[C@H](CCC(=O)O)NC(=O)[C@H](CC1CCCCC1)NC(=O)[C@H](CC(=O)O)NC(=O)[C@H](CC(=O)O)NC(=O)[C@H](CO)NC(C)=O)C(C)C)C(=O)N[C@@H](Cc1ccc(O)cc1)C(N)=O (I: Ac-SDD[Cha]EFWCHVMY-NH2 / II: Ac-SDD[Cha]EFWCHVMY-NH2; disulfide I:8-II:8)
Kd (Frizzled-7 [1]): 75.1 ×10⁻³ /s | Kd (Frizzled-7 [2]): 13.7 nM | Ka (Frizzled-7 [3]): 56.7 ×10⁵ /M/s

CCCC[C@H](NC(=O)[C@H](CC(=O)O)NC(=O)[C@H](CC(=O)O)NC(=O)[C@H](CO)NC(C)=O)C(=O)N[C@@H](CCC(=O)O)C(=O)N[C@@H](Cc1ccccc1)C(=O)N[C@@H](Cc1c[nH]c2ccccc12)C(=O)N[C@@H](CSSC[C@H](NC(=O)[C@H](Cc1c[nH]c2ccccc12)NC(=O)[C@H](Cc1ccccc1)NC(=O)[C@H](CCC(=O)O)NC(=O)[C@H](CCCC)NC(=O)[C@H](CC(=O)O)NC(=O)[C@H](CC(=O)O)NC(=O)[C@H](CO)NC(C)=O)C(=O)N[C@@H](Cc1cnc[nH]1)C(=O)N[C@H](C(=O)N[C@@H](CCSC)C(=O)N[C@@H](Cc1ccc(O)cc1)C(N)=O)C(C)C)C(=O)N[C@@H](Cc1cnc[nH]1)C(=O)N[C@H](C(=O)N[C@@H](CCSC)C(=O)N[C@@H](Cc1ccc(O)cc1)C(N)=O)C(C)C (I: Ac-SDD[Nle]EFWCHVMY-NH2 / II: Ac-SDD[Nle]EFWCHVMY-NH2; disulfide I:8-II:8)
Kd (Frizzled-7 [1]): 23.1 ×10⁻³ /s | Kd (Frizzled-7 [2]): 5.4 nM | Ka (Frizzled-7 [3]): 42.8 ×10⁵ /M/s

CCC(CC)[C@H](NC(=O)[C@H](CC(=O)O)NC(=O)[C@H](CC(=O)O)NC(=O)[C@H](CO)NC(C)=O)C(=O)N[C@@H](CCC(=O)O)C(=O)N[C@@H](Cc1ccccc1)C(=O)N[C@@H](Cc1c[nH]c2ccccc12)C(=O)N[C@@H](CSSC[C@H](NC(=O)[C@H](Cc1c[nH]c2ccccc12)NC(=O)[C@H](Cc1ccccc1)NC(=O)[C@H](CCC(=O)O)NC(=O)[C@@H](NC(=O)[C@H](CC(=O)O)NC(=O)[C@H](CC(=O)O)NC(=O)[C@H](CO)NC(C)=O)C(CC)CC)C(=O)N[C@@H](Cc1cnc[nH]1)C(=O)N[C@H](C(=O)N[C@@H](CCSC)C(=O)N[C@@H](Cc1ccc(O)cc1)C(N)=O)C(C)C)C(=O)N[C@@H](Cc1cnc[nH]1)C(=O)N[C@H](C(=O)N[C@@H](CCSC)C(=O)N[C@@H](Cc1ccc(O)cc1)C(N)=O)C(C)C (I: Ac-SDD[Nva(3-Et)]EFWCHVMY-NH2 / II: Ac-SDD[Nva(3-Et)]EFWCHVMY-NH2; disulfide I:8-II:8)
Kd (Frizzled-7 [1]): 29.2 ×10⁻³ /s | Kd (Frizzled-7 [2]): 3.9 nM | Ka (Frizzled-7 [3]): 73.6 ×10⁵ /M/s

CSCC[C@H](NC(=O)[C@@H](NC(=O)[C@H](Cc1cnc[nH]1)NC(=O)[C@H](CSSC[C@H](NC(=O)[C@H](Cc1c[nH]c2ccccc12)NC(=O)[C@H](Cc1ccccc1)NC(=O)[C@H](CCC(=O)O)NC(=O)[C@H](CCC(C)C)NC(=O)[C@H](CC(=O)O)NC(=O)[C@H](CC(=O)O)NC(=O)[C@H](CO)NC(C)=O)C(=O)N[C@@H](Cc1cnc[nH]1)C(=O)N[C@H](C(=O)N[C@@H](CCSC)C(=O)N[C@@H](Cc1ccc(O)cc1)C(N)=O)C(C)C)NC(=O)[C@H](Cc1c[nH]c2ccccc12)NC(=O)[C@H](Cc1ccccc1)NC(=O)[C@H](CCC(=O)O)NC(=O)[C@H](CCC(C)C)NC(=O)[C@H](CC(=O)O)NC(=O)[C@H](CC(=O)O)NC(=O)[C@H](CO)NC(C)=O)C(C)C)C(=O)N[C@@H](Cc1ccc(O)cc1)C(N)=O (I: Ac-SDD[hLeu]EFWCHVMY-NH2 / II: Ac-SDD[hLeu]EFWCHVMY-NH2; disulfide I:8-II:8)
Kd (Frizzled-7 [1]): 123.5 ×10⁻³ /s | Kd (Frizzled-7 [2]): 115 nM | Ka (Frizzled-7 [3]): 10.9 ×10⁵ /M/s
